Data as given in patent US20240124410A1, “SMALL MOLECULES AND THEIR USE AS MALT1 INHIBITORS” (University of Pittsburgh - Of the Commonwealth System of …, priority 2021, published 2024).
pIC50: −log10 of the molar value.

Key:
BCL10-MALT1 interaction = biological target: T1, BCL10-MALT1 interaction (Homo sapiens, UniProt Q9UDY8); assay: SPR analysis of disruption of the BCL10-MALT1 interaction, dose-response (FIG. 2E); Biacore 2000, full-length Bcl10 (GST-tagged recombinant human, Abnova H00008915-P01) immobilized on sensor chip, MALT1 protein passed over; format: binding
T1 construct: analyte a purified recombinant MALT1 fragment (DD+Ig1-2, Sumo-tagged Ig1-2 or GB-tagged DD)
T1 sequence (Q9UDY8 1-824): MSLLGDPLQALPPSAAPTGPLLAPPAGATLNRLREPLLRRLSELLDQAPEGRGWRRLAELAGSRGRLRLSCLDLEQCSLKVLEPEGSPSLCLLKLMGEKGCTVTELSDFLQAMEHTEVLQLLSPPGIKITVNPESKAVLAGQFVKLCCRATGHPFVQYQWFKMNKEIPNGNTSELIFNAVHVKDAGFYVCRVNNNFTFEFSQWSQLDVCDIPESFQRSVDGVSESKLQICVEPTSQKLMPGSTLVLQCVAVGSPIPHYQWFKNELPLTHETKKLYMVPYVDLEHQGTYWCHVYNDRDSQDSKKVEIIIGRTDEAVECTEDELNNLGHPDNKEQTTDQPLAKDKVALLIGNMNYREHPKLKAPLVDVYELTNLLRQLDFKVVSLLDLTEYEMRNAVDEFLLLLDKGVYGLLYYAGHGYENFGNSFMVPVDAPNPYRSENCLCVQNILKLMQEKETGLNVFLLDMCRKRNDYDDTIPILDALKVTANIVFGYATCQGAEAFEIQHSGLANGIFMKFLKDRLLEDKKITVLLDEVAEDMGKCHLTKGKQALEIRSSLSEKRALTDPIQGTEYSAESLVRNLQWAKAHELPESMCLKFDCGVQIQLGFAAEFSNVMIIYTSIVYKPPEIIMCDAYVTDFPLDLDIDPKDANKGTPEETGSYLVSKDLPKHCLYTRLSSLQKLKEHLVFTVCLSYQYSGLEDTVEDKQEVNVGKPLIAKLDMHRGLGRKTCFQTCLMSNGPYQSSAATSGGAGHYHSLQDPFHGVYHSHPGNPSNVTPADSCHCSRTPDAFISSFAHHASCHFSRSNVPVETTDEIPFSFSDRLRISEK
T1 sequence (O95999 1-233 partner): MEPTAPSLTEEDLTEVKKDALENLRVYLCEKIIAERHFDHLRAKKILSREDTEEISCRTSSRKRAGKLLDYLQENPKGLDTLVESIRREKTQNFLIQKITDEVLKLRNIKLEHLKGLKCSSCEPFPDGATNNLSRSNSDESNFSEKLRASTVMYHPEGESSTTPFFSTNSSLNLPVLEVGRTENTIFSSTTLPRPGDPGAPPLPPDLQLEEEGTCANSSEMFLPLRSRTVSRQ
Description: FIG. 2. In silico screening identifies small molecules targeting the predicted BCL10-binding groove within MALT1 (Ig1-2). (A) We performed a structure-guided in silico screen of 3 million compounds, using the LibDock program from Discovery Studio 3.5, in order to identify candidate molecules that could potentially fit within the identified groove in the MALT1 Ig1-2 domain. Lipinski's rule of five filters (LipinskiRo5) were applied to enrich for compounds with drug-like properties. Potential compound hits were then screened for their ability to disrupt the MALT1-BCL10 interaction using SPR analysis. 9 candidate compounds were then subjected to a second, ELISA-based MALT1-BCL10 interaction assay, identifying 2 compounds that could disrupt the interaction in both SPR and ELISA assays. M1i-124 and M1i-1255 are the two compounds identified to disrupt the BCL10-MALT1 interaction. […]
The LibDock program from Discovery Studio 3.5 was used to perform a structure-guided in silico screen of 3 million compounds to identify candidate molecules that could potentially fit within the identified groove of MALT1 Igl-Ig2 domain, found to be critical for BCL10-MALT1 interaction. […] Top hits were further evaluated for their potential to disrupt the BCL10-MALT1 interaction through secondary SPR and ELISA-based assays as described below. […]

IL-2 secretion = IL-2 secretion (ELISA); format: cell-based, human; conditions: dose-response
Protocol: Expression of cytokines from cell culture supernatants was measured 24h after treatment with 0, 0.01, 0.03, 0.1, 0.3, 1, or 3 uM of compounds using the following ELISA kits according to the manufacturer's instructions: Human IL-2 ELISA (BioLegend Cat #431804), Human IL-6 ELISA (BioLegend Cat #430504), and Human IL-10 ELISA (BioLegend Cat #430604).

pIC50 (BCL10-MALT1 interaction)	Compound	IL-2 secretion (IL-2 secretion)
4.66	O=S(=O)(NCc1ccc2c(c1)OCO2)c1ccc(Cc2ccc(S(=O)(=O)NCc3ccc4c(c3)OCO4)cc2)cc1 [M1i-124]	–
–	COc1ccc(CNS(=O)(=O)c2ccc(Cc3ccc(S(=O)(=O)NCc4ccc(OC)cc4)cc3)cc2)cc1 [M1i-124d1]	dose-dependent inhibition
